In patent publication US4424218A, “Novel 3 α-amino steroids” (Roussel Uclaf, priority 1979, dated 1984):
Where a name gives a salt, the structure may show the parent alone. Read-outs that look alike come from different tables or passages of the source.

Assays:
anaphylactic shock = assay: Adjuvant for anaphylactic shock (beef seric albumin); format: in vivo, mice; conditions: intraplantary, admixed with antigen; antigen intravenously 8 days later
Excerpt: C. Adjuvant for anaphylactic shock
The administration to animals of a compound capable of stimulating the activity of immunitary systems leads to an increase in response to administration of antigen to which the animal is sensitive. Male mice weighing between 30 to 35 g were sensitized by intraplantary administration of beef seric albumin. 8 days later, the mice received intraveinously an antigen and under the minimum sensibilization conditions, the control animals were not in mortal shock at the time of the last administration.
The active dose which provoked a mortality equal to or greater than 50% of the animals was determined and the results are reported in Table I.

mice = assay: Acute toxicity; format: in vivo; conditions: orally
[1] = system: rosettes to sheep red corpuscles; assay: Test of Rosettes to sheep red corpuscles; format: in vivo, rats; conditions: Rattus norvegicus, po, 24 h, read-out: immunostimulating dose which multiplied by 2 the percentage of rosettes observed in the control animals
Excerpt: D. Test of Rosettes to sheep red corpuscles
The administration to animals of a product capable of stimulating the immunitary systems leads to an increase of their capacity of reaction to the injection of an immunogenic product. 3 month old male rats were sensibilized by intraperitoneal administration of sheep erythrocytoes on day 0 and 7 days later, the spleen was removed and splenocytes were placed in contact with sheep erythrocytes. The percentage of leucocytes around the erythrocytes in the form of rosettes was determined. The test compounds were orally administered daily from day-1 to day 1 and immunostimulating dose is the dose of product which multiplied by 2 the percentage of rosettes observed in the control animals and the results are reported in Table II.

IgE production = assay: Potentialization of IgE production (passive cutaneous anaphylaxia test); format: in vivo, mice; conditions: for minimal effective dose: Mus musculus, sc, read-out: active dose, potentialization of IgE production
Procedure: A. Potentialization of IgE production
Female mice weighing between 28 to 30 g were immunized by subcutaneous administration of an ovalbumin-alumina mixture on days 0 and 14 and serum was taken on the 21st day for dosage of IgE antibodies formed. The respective quantities of antigen (ovalbumin) and adjuvant (alumina) injected was selected so as to keep production of antibodies at a minimum. The test compounds were administered subcutaneously 3 hours before the first immunization.
The research of the larger dilution of serum which gives a spot of a 11 to 13 mm diameter for each animal is made. An adequate dilution of serum was injected intradermally with a volume of 0.1 ml in male rats weighing about 250 g in the region of the back. 48 hours later, the animals received veinously 0.5 ml of a solution of 0.5% of ovalbumin and 1% of Evans blue in an isotonic solution of sodium chloride. 30 minutes after this injection, the animals were killed by exsanguination and the diameter of the blue spot on turned over skin is measured.

secondary arthritis = assay: Adjuvant for chronic arthritis (Freund type adjuvant); format: in vivo, rat; conditions: for ED50: Rattus norvegicus, read-out: active dose which diminished the secondary inflammation by at least 50%
Procedure: B. Adjuvant for chronic arthritis
The injection of a Freund type adjuvant (Mycobacterium butyricum at 6 mg/ml in Bayol 55) into the posterium paw of a rat provokes a primary inflammatory lesion and then after a latency period of 13 to 15 days, initiation of secondary inflammation affecting the other non-injected rear paw as well as the front paws, the ears and the tail.
Male rats aged 42 to 50 days received an intraplantary injection of 0.10 ml of Freund adjuvant and treatment started the day of the adjuvant injection and continued until the animals were killed on the 17th day. […] In this test, the effect on secondary inflammations was essentially observed, it was determined by the arthritis of the non-injected rear paw, arthritis of the front paws and the inflammation of the ears and tail.

[2] = orally, daily from day -1 to day 1

Compound	active dose which provoked a mortality equal to or greater than 50% of the animals (anaphylactic shock) [mg per animal]	DL0 (lethal dose LD0, maximum dose which did not cause any mortality after 8 days) (mice) [mg/kg]	ED (2-fold rosettes) [1, 2] [mg/kg]	also measured
C[C@H](O)[C@H]1CC[C@H]2[C@@H]3CC[C@H]4C[C@H](NC(=O)[C@@H](N)Cc5ccccc5)CC[C@]4(C)[C@H]3CC[C@]12C [Example 5]	5	≥ 400	–	–
C[C@H](O)[C@H]1CC[C@H]2[C@@H]3CC[C@H]4C[C@H](NC(=O)CN)CC[C@@H]4[C@H]3CC[C@]12C [Example 11, 2-amino-N-[(20S) 19-nor-5α-pregnane-20-ol-3α-yl]-acetamide hydrochloride]	0.5	≥ 400	5	–
C[C@H](O)[C@H]1CC[C@H]2[C@@H]3CC[C@H]4C[C@H](NC(=O)[C@@H]5CCCN5)CC[C@]4(C)[C@H]3CC[C@]12C [Example 7]	2	≥ 800	> 5	–
C[C@H](O)[C@H]1CC[C@H]2[C@@H]3CC[C@H]4C[C@H](NC(=O)c5cccnc5)CC[C@]4(C)[C@H]3CC[C@]12C [Example 9, N-[(20S)5α-pregnan-20-ol-3α-yl]-3-pyridinecarboxamide]	5	–	5	–
CCOC(=O)N[C@@H]1CC[C@@]2(C)[C@@H](CC[C@@H]3[C@@H]2CC[C@]2(C)[C@@H]([C@H](C)O)CC[C@@H]32)C1 [Example 14, Ethyl N-[(20S)5α-pregnane-20-ol-3α-yl]-carbamate]	5	≥ 400	–	–
C[C@H](O)[C@H]1CC[C@H]2[C@@H]3CC[C@H]4C[C@H](NC(=O)[C@@H](N)CCC(=O)O)CC[C@]4(C)[C@H]3CC[C@]12C [Example 3]	≤ 1	≥ 400	–	–
CC(=O)[C@@]1(O)CC[C@H]2[C@@H]3CC[C@H]4C[C@H](NC(=O)CN)CC[C@]4(C)[C@H]3CC[C@@]21C [Example 12, 2-amino-N-[(5α-pregnane-17α-ol-20-one-3α-yl]-acetamide hydrochloride]	–	–	5	–
C[C@H](O)[C@H]1CC[C@H]2[C@@H]3CC[C@H]4C[C@H](NC(=O)[C@@H](N)CO)CC[C@]4(C)[C@H]3CC[C@]12C [Example 4]	–	≥ 400	–	–
c1ccc([C@H]2CN3CCSC3=N2)cc1 [Levamisole, reference compound]	–	–	–	minimal effective dose (IgE production; subcutaneous, 3 hours before first immunization, ovalbumin-alumina): 20 mg/kg; ED50 (secondary arthritis; po, orally, treatment from day of adjuvant injection to 17th day): 50 mg/kg
C[C@H](O)[C@@]1(O)CC[C@H]2[C@@H]3CC[C@H]4C[C@H](NC(=O)CN)CC[C@]4(C)[C@H]3CC[C@@]21C [Example 10, 2-amino-N-[(20S) 5α-pregnane-17α,20-diol-3α-yl]-acetamide hydrochloride]	1	≥ 600	–	–
C[C@H](O)[C@H]1CC[C@H]2[C@@H]3CC[C@H]4C[C@H](NC(=O)CN)CC[C@]4(C)[C@H]3CC[C@]12C.Cl [Product A, (20S) 3α-[(aminoacetyl)-amino]-5α-pregnane-20-ol hydrochloride]	–	–	–	minimal effective dose (IgE production): 0.5 mg/kg; immunostimulating activity in IgE test (in words) (IgE production; subcutaneous, compared with Levamisole): greater immunostimulating activity than Levamisole; ED50 (secondary arthritis; sc): 1 mg/kg; activity against secondary phenomena of arthritis of adjuvant (in words) (secondary arthritis; subcutaneously, compared with Levamisole): very active against secondary phenomena of arthritis of adjuvant
C[C@H](O)[C@H]1CC[C@H]2[C@@H]3CC[C@H]4C[C@H](N(C)C(=O)CN)CC[C@]4(C)[C@H]3CC[C@]12C.Cl [Example 15, 2-amino-N-[(20S) 5α-pregnane-20-ol-3α-yl]-N-methyl-acetamide hydrochloride]	0.5	≥ 200	–	ED (2-fold rosettes) [1]: 10 mg/kg
C[C@H](O)[C@H]1CC[C@H]2[C@@H]3CC[C@H]4C[C@H](NC(=O)CNC(=O)CN)CC[C@]4(C)[C@H]3CC[C@]12C [Example 8]	1	≥ 400	–	–
C[C@H](N)C(=O)N[C@@H]1CC[C@@]2(C)[C@@H](CC[C@@H]3[C@@H]2CC[C@]2(C)[C@@H]([C@H](C)O)CC[C@@H]32)C1 [Example 2, (2S) 2-amino-N-[(20S)-5α-pregnan-20-ol-3α-yl]-propanamide]	0.5	200	1	–
C[C@H](O)[C@H]1CC[C@H]2[C@@H]3CC[C@H]4C[C@H](NC(=O)[C@@H](N)Cc5c[nH]c6ccccc56)CC[C@]4(C)[C@H]3CC[C@]12C [Example 6, (2S) 2-amino-N-[(20S) 5α-pregnane-20-ol-3α-yl]-1H-indol-3-propanamide]	5	≥ 1000	2	–
